According to patent US8846912B2, “Tartrate salts of quinazoline based EGFR inhibitors containing a zinc binding moiety” (Curis, Inc., priority 2007, dated 2014):
Where a name gives a salt, the structure may show the parent alone. Read-outs that look alike come from different tables or passages of the source. Values belong to the compound of their own block, whether it stands above or below them.

Key:
[1] = Dilution study with D5W (precipitation, chemical stability); assay type: physicochemical; conditions: for Dilution with D5W: salt in 30% CAPTISOL; for Chemical stability in diluted solution: salt in 30% CAPTISOL diluted with D5W
[2] = pH of salt solution in 30% CAPTISOL; assay type: physicochemical; conditions: salt in 30% CAPTISOL
A549 NSCLC Xenograft = test: A549 NSCLC xenograft model; assay type: in vivo; conditions: FIG. 11A, 11B
Breast_MCF7 = test: Cell proliferation assay (ATPlite); assay type: cell-based; conditions: Homo sapiens, MCF7; MCF-7, Breast adenocarcinoma (Table D); read-out: IC50 in cancer cell line
Experimental: (§1) Cell Proliferation Assay:
(§2) Cancer cell lines were plated at 5,000 to 10,000 per well in 96-well flatted bottomed plates with various concentration of compounds. […] Growth inhibition was accessed by adenosine triphosphate (ATP) content assay using Perkin Elmer ATPlite kit. ATPlite is an ATP monitoring system based on firefly luciferase. Briefly, 25 μl of mammalian cell lysis solution was added to 50 μl of phenol red-free culture medium per well to lyse the cells and stabilize the ATP. 25 μl of substrate solution was then added to the well and subsequently the luminescence was measured.

Breast_SkBr3 = test: Cell proliferation assay (ATPlite); assay type: cell-based; conditions: Homo sapiens, SK-BR-3; SKBr3, Breast carcinoma (Table D); read-out: IC50 in cancer cell line
Experimental: as §1, §2

[3] = test system: MDA-MB-231 Breast adenocarcinoma; test: Cell proliferation assay (ATPlite); assay type: cell-based; conditions: Homo sapiens; MDA-MB-231, Breast adenocarcinoma (Table D); read-out: IC50 in cancer cell line
Experimental: as §1, §2

Colon_HCT116 = test: Cell proliferation assay (ATPlite); assay type: cell-based; conditions: Homo sapiens, HCT-116; HCT116, Colon cancer (Table D); read-out: IC50 in cancer cell line
Experimental: as §1, §2

Prostate_PC3 = test: Cell proliferation assay (ATPlite); assay type: cell-based; conditions: PC-3, Prostate adenocarcinoma (Table D); read-out: IC50 in cancer cell line
Experimental: as §1, §2

[4] = test system: HPAC pancreatic cancer cells; test: HPAC pancreatic cancer tumor model; assay type: in vivo; conditions: 120 mg/kg in 30% CAPTISOL (iv/ip) daily; FIG. 12A
[5] = test system: various cancer cell lines; test: Cell proliferation assay, various cancer cell lines; assay type: cell-based; conditions: Table D, FIG. 3
Experimental: as §1
Cancer cell lines were plated at 5,000 to 10,000 per well in 96-well flatted bottomed plates with various concentration of compounds. The cells were incubated with compounds for 72 hours in the presence of 0.5% of fetal bovine serum. Growth inhibition was accessed by adenosine triphosphate (ATP) content assay using Perkin Elmer ATPlite kit. ATPlite is an ATP monitoring system based on firefly luciferase. Briefly, 25 μl of mammalian cell lysis solution was added to 50 μl of phenol red-free culture medium per well to lyse the cells and stabilize the ATP. 25 μl of substrate solution was then added to the well and subsequently the luminescence was measured.

[6] = Stability of CAPTISOL solution at room temperature; assay type: physicochemical; conditions: 25 mg/ml compound 12 with 8.6 mg tartaric acid in 30% CAPTISOL
[7] = both, Sprague Dawley, rat, in vivo, iv, 7 days
[8] = Pharmacokinetic study of compound 12 formulation in rats; assay type: in vivo; conditions: hydrochloride salt in 30% CAPTISOL, 20 and 60 mg/kg iv, FIG. 14
Experimental: (§3) Compound was administered via an intravenous (iv) infusion.
Rat: 20 mg/kg for 5 min i.v. infusion
(§4) Plasma samples were prepared by protein precipitation. An internal standard was added into plasma samples. […] The supernatant was then injected onto LC/MS/MS.
(§5) Samples were compared to standards made in plasma. These standards were prepared by serial dilution.

[9] = male, CD-1, mouse, in vivo, ip, 7 days
[10] = test system: EGFR in MDA-MB-468 breast cancer cell line; test: EGFR phosphorylation in cells; assay type: cell-based; conditions: FIG. 2
From the text: (§6) FIG. 2 illustrates inhibition of HDAC and EGFR in MDA-MB-468 breast cancer cell line: (a) Ac-H4 Accumulation, (b) Ac-H3 Accumulation, (c) EGFR inhibition.

[11] = biological target: T1, human EGFR(His672-Ala1210) (Homo sapiens, UniProt P00533); test: EGFR kinase assay (HTScan EGF Receptor Kinase Assay Kit); assay type: biochemical; conditions: FIG. 1
T1 construct: a construct expressing human EGFR(His672-Ala1210); GST (N); purchased Cell Signaling Technologies; host or cells: baculovirus expression system
T1 sequence (P00533 672-1210): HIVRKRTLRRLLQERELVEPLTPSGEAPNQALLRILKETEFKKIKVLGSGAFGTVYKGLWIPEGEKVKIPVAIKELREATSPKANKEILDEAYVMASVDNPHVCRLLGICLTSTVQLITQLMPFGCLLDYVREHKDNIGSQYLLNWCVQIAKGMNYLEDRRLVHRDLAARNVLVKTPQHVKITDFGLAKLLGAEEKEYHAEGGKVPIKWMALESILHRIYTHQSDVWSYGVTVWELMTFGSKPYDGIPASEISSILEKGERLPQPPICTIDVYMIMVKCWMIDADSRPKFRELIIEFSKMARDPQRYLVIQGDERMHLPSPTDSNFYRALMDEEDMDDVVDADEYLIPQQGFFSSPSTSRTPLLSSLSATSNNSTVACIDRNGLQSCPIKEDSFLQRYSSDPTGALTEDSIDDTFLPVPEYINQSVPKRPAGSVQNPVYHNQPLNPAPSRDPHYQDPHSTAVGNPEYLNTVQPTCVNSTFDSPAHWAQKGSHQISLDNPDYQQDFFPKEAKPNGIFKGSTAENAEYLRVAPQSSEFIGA
Experimental: The ability of compounds to inhibit receptor kinase (EGFR) activity was assayed using HTScan™ EGF Receptor Kinase Assay Kits (Cell Signaling Technologies, Danvers, Mass.). […] The protein was purified by one-step affinity chromatography using glutathione-agarose.
Immediately transfer enzyme from −80° C. to ice. Allowed enzyme to thaw on ice. […] Returned immediately to ice. […] Incubated reaction plate at room temperature for 30 minutes. […] Added 100 μl/well primary antibody. Incubated at room temperature for 60 minutes. […] Added 100 μl/well diluted antibody. Incubated at room temperature for 30 minutes. […] Incubated at room temperature for 5 minutes.

[12] = both, Sprague Dawley, rat, in vivo, iv, 8 days
[13] = Pharmacokinetic study of compound 12 formulation in mice (iv, ip); assay type: in vivo; conditions: hydrochloride salt
[14] = Pharmacokinetic study of compound 12 in dogs; assay type: in vivo; conditions: 25 mg/kg tartrate salt in 30% CAPTISOL, FIG. 19
Experimental: as §3
Beagle: 25 mg/kg for 30 min i.v. infusion
as §4, §5

[15] = test system: colon and breast cancer cells (HCT-116, SKBr3); test: Induction of apoptosis (Caspase 3&7 activity); assay type: cell-based; conditions: HCT-116 and SKBr3, 24 hours; FIG. 4
[16] = test system: HDAC in MDA-MB-468 breast cancer cell line; test: Histone acetylation (Ac-H4, Ac-H3 accumulation) in cells; assay type: cell-based; conditions: FIG. 2
From the text: as §6

Caki-1 Renal carcinoma = test: Cell proliferation assay (ATPlite); assay type: cell-based; conditions: Homo sapiens; Caki-1, Renal carcinoma (Table D); read-out: IC50 in cancer cell line
Experimental: as §1, §2

[17] = male, CD-1, mouse, in vivo, iv, 9 days
HDAC = HDAC fluorimetric enzyme assay (HeLa nuclear extract); assay type: biochemical
Experimental: HDAC inhibitors were screened using an HDAC fluorimetric assay kit (AK-500, Biomol, Plymouth Meeting, Pa.).
Each assay was setup as follows: Defrosted all kit components and kept on ice until use. […] Prepared dilutions of Trichostatin A (TSA, positive control) and tested compounds in assay buffer (5× of final concentration). Diluted Fluor de Lys™ Substrate in assay buffer to 100 uM (50 fold=2× final). Diluted Fluor de Lys™ developer concentrate 20-fold (e.g. 50 μl plus 950 μl Assay Buffer) in cold assay buffer. Second, diluted the 0.2 mM Trichostatin A 100-fold in the 1× Developer (e.g. 10 μl in 1 ml; final Trichostatin A concentration in the 1× Developer=2 μM; final concentration after addition to HDAC/Substrate reaction=1 μM). Added Assay buffer, diluted trichostatin A or test inhibitor to appropriate wells of the microtiter plate. Added diluted HeLa extract or other HDAC sample to all wells except for negative controls.

IC50 [3]: ≤ 5000 nM
Compound: C#Cc1cccc(Nc2ncnc3cc(OCCOC)c(OCCOC)cc23)c1 [Erlotinib]
effect on tumor growth / tumor size (A549 NSCLC Xenograft): did not significantly affect tumor size as compared to control
IC50 (Breast_MCF7): ≤ 5000 nM
IC50 (Breast_SkBr3): ≤ 5000 nM
IC50 (Colon_HCT116): ≤ 5000 nM
IC50 (Prostate_PC3): ≤ 5000 nM

IC50 (HDAC): < 100 nM
activity in HDAC enzyme assay compared with SAHA (HDAC; FIG. 1): more active than erlotinib and SAHA
activity in EGFR enzyme assay compared with erlotinib [11]: more active than erlotinib and SAHA
Compound: COc1cc2ncnc(Nc3ccc(F)c(Cl)c3)c2cc1OCCCCCCC(=O)NO [Compound 6, 7-(4-(3-Chloro-4-fluorophenylamino)-7-methoxyquinazolin-6-yloxy)-N-hydroxyheptanamide]

IC50 (HDAC): < 100 nM
Compound: C#Cc1cccc(Nc2ncnc3cc(OC)c(OCCCCCC(=O)NO)cc23)c1 [Compound 11, 6-(4-(3-ethynylphenylamino)-7-methoxyquinazolin-6-yloxy)-N-hydroxyhexanamide]

IC50 (HDAC): < 100 nM
Compound: C#Cc1cccc(Nc2ncnc3cc(OCCOC)c(OCCCCCCC(=O)NO)cc23)c1 [Compound 36, 7-(4-(3-Ethynylphenylamino)-7-(2-methoxyethoxy)quinazolin-6-yloxy)-N-hydroxyheptanamide]

IC50 (HDAC): > 10000 nM
Compound: C#Cc1cccc(Nc2ncnc3cc(OC)c(OCCC(=O)NO)cc23)c1 [Compound 8]

IC50 (HDAC): < 100 nM
Compound: O=C(CCCCCOc1ccc2ncnc(Nc3ccc(F)c(Cl)c3)c2c1)NO [Compound 17, 6-(4-(3-Chloro-4-fluorophenylamino)quinazolin-6-yloxy)-N-hydroxyhexanamide]

IC50 (HDAC): > 10000 nM
Compound: C#Cc1cccc(Nc2ncnc3ccc(OCC(=O)NO)cc23)c1 [Compound 19, 2-(4-(3-ethynylphenylamino)quinazolin-6-yloxy)-N-hydroxyacetamide]

The remaining lines, values behind:

Compound: C#Cc1cccc(Nc2ncnc3cc(OC)c(OCCCCCCC(=O)NO)cc23)c1 [HCl]
Dilution with D5W [1]: >10x
Chemical stability in diluted solution [1]: >12 h
pH [2]: 2-3

Compound: C#Cc1cccc(Nc2ncnc3cc(OC)c(OCCCCCCC(=O)NO)cc23)c1 [Compound 12, 7-(4-(3-ethynylphenylamino)-7-methoxyquinazolin-6-yloxy)-N-hydroxyheptanamide]
attenuation of tumor growth [4]: greater attenuation of tumor growth than either erlotinib (po) or vehicle
anti-proliferative activity compared with Erlotinib, SAHA and their combination [5]: more active than Erlotinib and SAHA
stability of diluted solution at room temperature ([1]; 60 mg/ml compound 12 with tartaric acid (1.3 eq) in 30% CAPTISOL, diluted in 1x water and 2x D5W): > 12 h
stability of solution [6]: stable at room temperature
dose without significant change in body weight or food consumption [7]: up to 100 mg/kg
dose proportionality of plasma concentration [8]: proportional to the dose
dose without significant change in body weight [9]: up to 100 mg/kg
inhibition of EGFR phosphorylation compared with Erlotinib [10]: improvement in inhibition of histone acetylation and EGFR phosphorylation
activity in EGFR enzyme assay compared with erlotinib [11]: more active than erlotinib and SAHA
dose without significant change in body weight [12]: up to 200 mg/kg
dose proportionality of concentration ([13]; 20 and 60 mg/kg, iv and ip): dose proportional when administered intravenously but not intraperitoneally
half-life in tissue versus plasma ([13]; lung, colon, plasma): greater than that in plasma
concentration in plasma in 4 hours [14]: less than 10 mg/ml
cell apoptosis measured by increased Caspase 3&7 activity [15]: 4-11 times
effect on tumor growth / tumor size (A549 NSCLC Xenograft): attenuated tumor growth
inhibition of histone acetylation compared with SAHA [16]: improvement in inhibition of histone acetylation
IC50 (Caki-1 Renal carcinoma): ≤ 50 nM
dose without significant change in body weight [17]: up to 200 mg/kg

Compound: C#Cc1cccc(Nc2ncnc3cc(OC)c(OCCCCCCC(=O)NO)cc23)c1 [Sodium]
Dilution with D5W [1]: >10x
Chemical stability in diluted solution [1]: >12 h
pH [2]: 10-11

Compound: Citric Acid
Dilution with D5W [1]: >10x
Chemical stability in diluted solution [1]: >12 h

Compound: O=C(/C=C/c1ccc(OCCOc2ccc3ncnc(Nc4ccc(F)c(Cl)c4)c3c2)cc1)NO [Compound 63]
IC50 (HDAC): 100 to 1000 nM

Compound: O=C(CCOc1ccc2ncnc(Nc3ccc(F)c(Cl)c3)c2c1)NO [Compound 14]
IC50 (HDAC): 1000 to 10000 nM
